IC50 data for 95 compounds are collected here from PubChem BioAssay AID1981 (Southern Research Specialized Biocontainment Screening …, 2009).

Usually IC50 stands for the midpoint of a concentration-inhibition curve.

This assay relates to S. Typhimurium PhoP-promoter GFP reporter counterscreen, fluorescence, 4 h. Nature of the assay: S. Typhimurium GFP fluorescence dose response in modified counterscreen for PhoP regulon inhibitor project (AID 1981). In general terms: A counterscreen serves to expose hits that act by an unwanted route or on another target.
As to `CCn1cc(C(=O)NCCO)c(=O)c2cc(F)c(N3CCN(C)CC3)cc21`, the IC50 is 29.9 µM. Consider `O=C(N/N=C/c1cc(Cl)ccc1O)c1cccnc1`, for which the half-inhibitory concentration (IC50) was 35 µM. On to `CCOC(=O)N1CCN(C(=O)c2cn(CC)c3cc(N4CCN(C)CC4)c(F)cc3c2=O)CC1`, for which the IC50 is 8.51 µM. The same measure for `O=C1OC(/C(=C\Nc2ccc(F)cc2F)[N+](=O)[O-])c2ccccc21` (stereo not given): 18.2 µM; for `COc1c(N2CCN(C(=S)NC3CC4CCC3C4)C(C)C2)c(F)cc2c(=O)c(C(=O)O)cn(C3CC3)c12` (stereo not given): 5.38 µM; for `O=C(N/N=C/c1cc([N+](=O)[O-])ccc1O)c1ccncc1`: 101 µM. Consider `CC1CCc2cc(F)cc3c(=O)c(C(=O)O)cn1c23` (stereo not given), for which the IC50 was 13.5 µM. To `O=C(N/N=C/c1coc2ccc(Cl)cc2c1=O)c1cc(O)cc(O)c1` belongs 137 µM. As to `O=C1C=C(O)c2c(O)cc(O)c(O)c2C1=O`, the IC50 is 69.4 µM. Consider `O=c1cc2oc3cc(O)c(O)cc3c(-c3ccccc3[N+](=O)[O-])c-2cc1O`, for which the IC50 was 56.6 µM.

Consider `O=C(/C=C/c1ccco1)Oc1cc(Br)cc(/C=N/NC(=O)c2ccccc2O)c1`, for which the IC50 was 134 µM. To `COc1cccc(/C=N/Nc2ncc(C(F)(F)F)cc2Cl)c1O` belongs 34.7 µM; to `Oc1c(I)cc(Cl)c2cccnc12`, 70.7 µM; to `Cc1ccc(C(c2cc(Cl)c3cccnc3c2O)N2CCN(C)CC2)cc1` (stereo not given), 41.1 µM.

For `NC1CCN(c2nc3c(cc2F)c(=O)c(C(=O)O)cn3-c2ccc(F)cc2F)C1` (stereo not given), the IC50 was 0.53 µM. To `CCn1cc(C(=O)NCCCN(C)C)c(=O)c2cc(F)c(N3CCN(C)CC3)cc21` belongs 64.3 µM; to `CN(Cc1ccccc1)CC(O)COc1ccc(CNCc2ccc(Cl)s2)cc1` (stereo not given), 117 µM. The same measure for `CCn1cc(C(=O)NCCN(C)C)c(=O)c2cc(F)c(N3CCN(C)CC3)cc21`: 123 µM; for `NC(N)=NN=C1CCCCCCCCCCC1`: 81.7 µM; for `CC(C)(C)CC(C)(C)c1ccc(OCCOCC[N+](C)(C)Cc2ccccc2)cc1`: 47.1 µM. `O=S1(=O)Nc2c(ccc3cccnc23)-c2ccccc21`: the IC50 was 3.01 µM. Turning to `Oc1ccc(/C=N/Nc2ncc(Br)cn2)c(O)c1`, the IC50 is 128 µM. Take `CCOC(=O)C[n+]1c(C)sc2ccc(OC)cc21`: the IC50 is 133 µM.

Take `COc1ccc(OC)c(C(=O)C2COC(=O)C2)c1` (stereo not given): the IC50 was 134 µM.

`CCc1ccc(S(=O)(=O)/N=C2/C=C(Sc3ncn[nH]3)C(=O)c3ccccc32)cc1`: the IC50 is 138 µM. For `Cc1c2ccncc2c(C)c2c1[nH]c1ccccc12`, the IC50 was 69.7 µM. To `CN(C)c1ccc(/C=C/c2ccc3ccccc3[n+]2C)cc1` belongs 26.9 µM; to `C/C(=N\Nc1nc2ccccc2[nH]1)c1ccccn1`, 29.3 µM; to `O=C1C(SCCO)=C(SCCO)C(=O)c2ccccc21`, 64.9 µM. To `CC(C)COc1ccc(Cc2cnc(N)nc2N)cc1` belongs 127 µM; to `CN1CCN(c2c(F)cc3c(=O)c(C(=O)O)cn4c3c2OCN4C)CC1`, 0.28 µM; to `Cc1ccc(-c2c[n+](CC(=O)Nc3nc(-c4ccc(F)cc4)cs3)c3n2CCC3)cc1`, 72.5 µM. The same measure for `COc1ccccc1CNCC(O)Cn1c2ccccc2c2ccccc21` (stereo not given): 88.7 µM.

Take `CCc1ccc(-c2nn(-c3ccccc3)cc2CSC(=N)N)cc1`: the IC50 is 40.4 µM. Take `O=Nc1ccc(O)c2ncccc12`: the IC50 was 41.4 µM. To `CCCCCCCCCCCCCCCC[N+](C)(C)CCN(Cc1ccc(OC)cc1)c1ncccn1` belongs 24.2 µM; to `N=C(N)SCc1cn(-c2ccccc2)nc1-c1ccc(Br)cc1`, 36.1 µM; to `C1=C(CCNCc2ccccc2)CCCC1`, 9.75 µM. Regarding `C#CCOCCOCCOCCNc1nc(N2CCN(C(=O)CCCCCCCCCCNC(=O)[C@H]([C@@H](C)CC)n3cc(CCCCN=C(N)N)nn3)CC2)nc(N2CCN(C(=O)CCCCCCCCCCNC(=O)[C@H]([C@@H](C)CC)n3cc(CCCCN=C(N)N)nn3)CC2)n1`, the IC50 was 61.1 µM. The same measure for `O=C(OCC1O[C@@H](OC(=O)c2cc(O)c(O)c(O)c2)[C@@H](OC(=O)c2cc(O)c(O)c(O)c2)[C@@H](OC(=O)c2cc(O)c(O)c(O)c2)[C@@H]1OC(=O)c1cc(O)c(O)c(O)c1)c1cc(O)c(O)c(O)c1` (stereo not given in full): 83.1 µM; for `CN(C)C1C(=O)C(C(N)=O)=C(O)C2(O)C(=O)C3=C(O)c4c(O)cccc4C(C)(O)C3CC12` (stereo not given): 0.67 µM; for `CCCC(=O)NC(c1ccc(Cl)cc1)c1ccc2cccnc2c1O` (stereo not given): 62.3 µM. The same measure for `CCn1cc(C(=O)NCCCO)c(=O)c2cc(F)c(N3CCN(C)CC3)cc21`: 46 µM; for `Cc1cc(/C=N/n2c(COc3ccccc3)nc3ccccc3c2=O)c(O)c([N+](=O)[O-])c1`: 61.4 µM; for `CCCCN(CCCC)C(=O)c1cn(CC)c2cc(N3CCN(C)CC3)c(F)cc2c1=O`: 14.2 µM. For `CN1CCN(c2cc3c(cc2F)c(=O)c(C(=O)O)cn3CCF)CC1`, the IC50 was 0.51 µM. In the case of `Clc1ccc(OCCCNCc2ccccc2)c(Br)c1`, the IC50 was 71.8 µM. Turning to `NCCc1c(-c2ccccc2)n(-c2ccccc2)c2ccccc12`, the IC50 was 83.7 µM. For `Oc1ccc(CN2CCN(Cc3ccccc3)CC2)c2cccnc12`, the IC50 is 59.2 µM. With `CNC[C@H](CC1CCCCC1)NC[C@H](Cc1ccccc1)NCCC12CC3CC(CC(C3)C1)C2`, the IC50 was 19.6 µM.

In the case of `C=CC1=C(C(=O)O)N2C(=O)[C@@H](NC(=O)/C(=N/OCC(=O)O)c3csc(N)n3)[C@H]2SC1`, the IC50 was 17.9 µM. To `Nc1c(Cl)ncnc1N/N=C/c1ccccn1` belongs 32.2 µM; to `O=C(Cn1nc(CNc2ccc(Cl)cc2)[n+]2c1CCCCC2)c1ccc(Br)cc1`, 88.2 µM; to `CNC[C@H](Cc1ccccc1)NC[C@@H](Cc1cccc2ccccc12)NCCc1ccc(C)cc1`, 29.9 µM.

With `S=c1nc(C2CCCCC2)[nH][nH]1`, the half-maximal inhibitory concentration (IC50) is 136 µM.

As to `CC(=O)N1CCN(c2cc3c(cc2F)c(=O)c(C(=O)O)cn3C2CC2)CC1`, the IC50 is 21.6 µM. Take `COc1ccc(/C=N/Nc2cc(C)nc3c(C)cccc23)cc1`: the IC50 is 93.3 µM. `CC[C@H]1OC(=O)C[C@@H](O)[C@H](C)[C@@H](O[C@@H]2O[C@H](C)C[C@H](N(C)C)[C@H]2O)[C@@H](CC=O)C[C@@H](C)C(=O)C=C[C@]2(C)O[C@H]2[C@@H]1C`: the IC50 is 10.2 µM. The same measure for `Oc1c(CN2CCCCC2)cc(COCc2ccccc2)c2cccnc12`: 85.6 µM. The same measure for `O=C1c2ccccc2C(=O)c2[nH]c(=O)[nH]c21`: 6.53 µM; for `Oc1ccc(CNc2ccccc2F)c2cccnc12`: 76.5 µM; for `CCCCCCCCCCCCCCCC[N+](C)(C)CC`: 24.9 µM. To `CCCCCCCCCn1c2c(c(=N)c3c1CCC3)CCC2` belongs 84.5 µM. As for `Cc1sc2ncnc(N/N=C/c3ccccc3O)c2c1C`, the IC50 was 69.2 µM.

For `O=[N+]([O-])c1ccc(N/N=C/c2ccc[nH]2)cc1`, the IC50 was 141 µM. The same measure for `C=C1c2c(Cl)ccc(O)c2C(O)=C2C(=O)[C@]3(O)C(O)=C(C(N)=O)C(=O)[C@@H](N(C)C)[C@@H]3[C@@H](O)C12` (stereo not given in full): 0.94 µM; for `O=C1NN(c2ccccc2)C(=O)/C1=C\c1coc2ccc(O)cc2c1=O`: 81.9 µM.

Take `CCCCCCCCCCCCCCCC[N+](C)(C)C`: the IC50 is 37.9 µM. On to `CN1CCc2c(sc(NC(=O)c3ccc([N+](=O)[O-])o3)c2C(N)=O)C1`, for which the IC50 is 33.7 µM. To `CN1/C(=C\C=C\C2=[N+](C)c3ccc4ccccc4c3C2(C)C)C(C)(C)c2ccccc21` belongs 14.1 µM; to `NC(N)=N/N=C/c1ccc(OCc2ccc(Cl)cc2)cc1`, 56.5 µM; to `CCn1cc(C(=O)O)c(=O)c2cc(F)c(N3CCN(C(=S)NC(=O)c4ccc(F)c(F)c4)CC3)cc21`, 46.6 µM. To `Cc1ccc(Nc2cc(C)nn2-c2nc(C)cc(=O)[nH]2)cc1` belongs 12.4 µM; to `O=C(Oc1c(Cl)cc(Cl)c2cccnc12)c1ccco1`, 17.3 µM; to `Clc1ccc(Cl)c(OCCCCNCc2ccccc2)c1`, 131 µM. In the case of `Nc1nnc(-c2cccc(Cl)c2Cl)c(N)n1`, the half-inhibitory concentration (IC50) was 66.4 µM. To `Cc1ccc(Nc2nc(NCc3ccco3)c3ccccc3n2)cc1` belongs 23.6 µM. In the case of `CO[C@H]1/C=C/O[C@@]2(C)Oc3c(C)c(O)c4c(O)c(c(C=NN5CCN(C)CC5)c(O)c4c3C2=O)NC(=O)/C(C)=C\C=C\[C@H](C)[C@H](O)[C@@H](C)[C@@H](O)[C@@H](C)[C@H](OC(C)=O)[C@@H]1C`, the IC50 is 10.3 µM. `CCCCCN=C(N)N/N=C/c1c[nH]c2ccc(OC)cc12`: the IC50 was 40.4 µM. For the compound `CCCC(=O)NC(c1ccc(N(C)C)cc1)c1ccc2cccnc2c1O` (stereo not given), the IC50 is 49.4 µM. Regarding `Nc1[nH]c(=O)ncc1F`, the IC50 is 10.6 µM. As for `O=S1(=O)CCC(NC(=S)SCCOc2ccccc2)C1` (stereo not given), the IC50 was 86.5 µM. For the compound `O=[N+]([O-])c1cc(Cl)c2cccnc2c1O`, the IC50 is 1.96 µM.

Take `O=[N+]([O-])c1ccc(-c2ccn[nH]2)o1`: the IC50 was 33.7 µM. The same measure for `CC[n+]1c(/C=C/c2ccc(N(C)C)cc2)ccc2ccccc21`: 91.2 µM. To `Cc1ccc(C)n1-c1cc(S(=O)(=O)N2CCOCC2)ccc1N1CCCC1` belongs 138 µM; to `Oc1c(Cl)cc(Cl)c2cccnc12`, 17.9 µM. To `CN(C)C1C(=O)C(C(N)=O)=C(O)C2(O)C(=O)C3=C(O)c4c(O)cccc4C(C)(O)C3C(O)C12` (stereo not given) belongs 1.35 µM. Turning to `O=C(Cc1ccccc1)Nc1cccc(N2C(=O)C=CC2=O)c1`, the IC50 was 142 µM. To `CCCCCCCCCCCCCCCC[n+]1ccc(/C=N/O)cc1` belongs 30.6 µM.

As for `NCC12CC3CC(C1)CC(c1ccc(Br)cc1)(C3)C2`, the IC50 was 55.2 µM. As for `Cc1cc(C)c(NC(=O)c2cn3c4c(c(N5CCN(C)CC5)c(F)cc4c2=O)OCC3C)c(C)c1` (stereo not given), the IC50 is 35.1 µM. To `COc1c(F)c(F)cc2c(=O)c(C(=O)O)cn(C3CC3)c12` belongs 66.3 µM; to `Cc1cc(C(=O)N/N=C/c2ccc([N+](=O)[O-])s2)n[nH]1`, 36.7 µM; to `O=c1[nH][nH]c(-c2ccccc2O)c1C(C[N+](=O)[O-])c1ccc(Br)cc1` (stereo not given), 66.5 µM.
